Laboratory results as given in patent publication US5763194A, “Cell separation device” (Unisearch Limited, priority 1993, dated 1998).

Test system: CD34+ cells
Assay: Separation of CD34+ cells from mobilised blood using shear fractionation and pre-treatment with chymopapain
Format: cell-based, human (patient)
Description: Cells bound to the semi-permeable substrate of the present invention may be pre-treated with a cell-releasing agent prior to removal by shear stress. The proteolytic enzyme chymopapain has been used to assist the removal of CD34^+ cells bound to a hollow fibre apparatus of the present invention.
A mononuclear cell concentrate was collected from a patient undergoing peripheral stem cell mobilisation with cyclophosphamide and G-CSF.
A Cuprophan hollow-fibre module (binding area ^~ 500 cm^2) was derivatised with antiCD34 monoclonal antibody (clone 9e5) using the hydrazide method as described previously with the following change in protocl. Cuprophan was derivatised with 25% ethylene glycol diglycidyl ether for 2 hours at room temperature.
A total of 1.7×10^8 cells in 4 mls of phosphate buffered saline with 0.5% human Ig and 0.5% bovine serum albumin added was injected into the vertically aligned module using blind-ended filtration. Residual cells in the inlet tubing were flushed with a further 0.5 ml of buffer (blind-ended filtration). The entire loading process took less than 8 minutes. Cells were loaded at approximately 340,000 cells/cm^2.
For cell deposition within the fibre lumen, the module was rotated into the horizontal position. After 4 minutes of settling time, the module was rotated around its long axis over a 12 minute period (2 full revolutions).
For cell recovery the module was returned to the vertical position. The CD34 depleted cell population was recovered in successive 10 ml fractions by incrementing shear stress up to 100 dynes/cm (Fraction numbers 1-5).
Following this, attached cells were incubated with the proteolytic enzyme Chymopapain (DISCASE™) at 400 pKat/ml. The incubation period lasted 20 minutes. During this time released cells were collected at low shear stress (0.2 dynes/cm^2, Fraction 6). Shear fractionation was then used to further purify treated cells. 10 ml fractions were collected at shear stresses of 10, 50 and 100 dynes/cm2.

[1] = Fraction 6, chymopapain + 0.2 dynes/cm^2
[2] = Fraction 7, after chymopapain, 10 dynes/cm^2
[3] = Fraction 8, after chymopapain, 50 dynes/cm^2
[4] = Fraction 9, after chymopapain, 100 dynes/cm^2
[5] = Fraction 10, after chymopapain, 100 dynes/cm^2
[6] = Fraction 11, after chymopapain, ~1000 dynes/cm^2 (3% dextran T2000)

chymopapain: proteolytic enzyme Chymopapain (DISCASE™)
CD34+ incidence [1]: 93.1%
Number of CD34+ cells [1]: 640,000
Total number of cells [1]: 687,000
CD34+ incidence [2]: 86.1%
Number of CD34+ cells [2]: 1,770,000
Total number of cells [2]: 2,060,000
CD34+ incidence [3]: 1.91%
Number of CD34+ cells [3]: 45,100
Total number of cells [3]: 2,360,000
CD34+ incidence [4]: 1.19%
Number of CD34+ cells [4]: 12,400
Total number of cells [4]: 1,040,000
CD34+ incidence [5]: 0.54%
Number of CD34+ cells [5]: 3,060
Total number of cells [5]: 567,000
CD34+ incidence [6]: 0.31%
Number of CD34+ cells [6]: 2,050
Total number of cells [6]: 660,000
CD34 antigen expression of released cells (flow cytometry (BG12-PE), chymopapain released cells): 150-1600 channels
purity of fractions 6 and 7 (fractions 6 and 7): at least 90%
separation yield (CD34+ cells recovered/CD34+ cells input) (fractions 6 and 7 pooled): 53%
